According to US5212176A, “R(+)-terazosin” (Abbott Laboratories, priority 1990, dated 1993):
Counter-ions that a name gives are not always drawn.

Assays:
[1] = acute toxicity, intravenous administration in adult male mice; type: in vivo; details: mouse, in vivo, adult male mice
Procedure: (§1) The acute toxicities of the two enantiomeric forms of terazosin and the racemic compound were tested in adult male mice by intravenous administration, and the data appear in Table 2.

[2] = molecular target: α2 adrenergic receptors; test: α2 adrenergic receptor binding: competition with tritiated rauwolscine in rat cerebral cortex tissue; parameters: species or system male Sprague-Dawley rats; details: [3H]rauwolscine 0.5 nM, 22° C., 50 min, mean
Procedure: (§2) The technique is well known and described in the literature. The pKI, or negative logarithm of the binding equilibrium constant, is determined from the experimental data for each receptor and the degree of selectivity of the compound in question for α1 over α2 receptors can be measured by the antilogarithm of the differences between the pKI values for the two receptors.
(§3) α-Adrenergic binding data were obtained for the two enantiomers of terazosin and the racemic compound. Tissue from the liver and cerebral cortex of male Sprague-Dawley rats was homogenized in ice-cold assay buffer (Tris-HCl, 50 mM, pH 7.0 and 22° C.). After centrifugation at 48,000 g for ten minutes the resulting pellets, containing cellular membranes containing α-receptors, were resuspended in 20 volumes of assay buffer and recentrifuged for ten minutes at 48,000 g. Liver membranes were diluted 200-fold and cerebral cortex tissues 50-fold with assay buffer.
(§4) Binding to α1 adrenergic receptors was characterized with liver membranes in competition studies using tritiated prazosin (82 Ci/mmol, DuPont NEN; 0.2 nM) and six concentrations of each test compound at half-log incremental concentrations. Binding to α2 adrenergic receptors was characterized in cerebral cortex tissue using tritiated rauwolscine (82.2 Ci/mMol, DuPont NEN; 0.5 nM) and six concentrations of competing test compound. Equilibrium binding was characterized after a 50 minute incubation period at 22° C.
(§5) where [L] is the concentration of radioligand and KD is the equilibrium dissociation constant of the radioligand for the receptor.

[3] = molecular target: T1, α1 adrenergic receptors (Rattus norvegicus, UniProt P15823); test: α1 adrenergic receptor binding: competition with tritiated prazosin in rat liver membranes; parameters: species or system male Sprague-Dawley rats; details: [3H]prazosin 0.2 nM, 22° C., 50 min, mean, read-out: α1 Receptor pKI (converted)
T1 construct: cellular membranes containing α-receptors; from tissue; host or cells: liver membranes of male Sprague-Dawley rats
T1 sequence (P15823 1-515): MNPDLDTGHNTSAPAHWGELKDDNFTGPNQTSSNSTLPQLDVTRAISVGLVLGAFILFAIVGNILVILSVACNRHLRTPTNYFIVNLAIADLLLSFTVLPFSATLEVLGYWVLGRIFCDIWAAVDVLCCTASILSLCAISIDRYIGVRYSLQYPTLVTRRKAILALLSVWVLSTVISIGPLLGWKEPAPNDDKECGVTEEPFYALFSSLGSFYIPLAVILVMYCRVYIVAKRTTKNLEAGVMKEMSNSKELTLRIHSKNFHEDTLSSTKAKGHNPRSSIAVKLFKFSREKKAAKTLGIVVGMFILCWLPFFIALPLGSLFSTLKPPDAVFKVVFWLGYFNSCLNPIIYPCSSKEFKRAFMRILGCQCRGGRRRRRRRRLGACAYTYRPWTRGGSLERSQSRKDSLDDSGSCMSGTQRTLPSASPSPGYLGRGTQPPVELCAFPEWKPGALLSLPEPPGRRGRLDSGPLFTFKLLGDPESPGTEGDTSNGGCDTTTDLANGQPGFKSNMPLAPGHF
Procedure: as §2, §3, §4, §5

[4] = test system: spontaneously hypertensive rat; test: antihypertensive effects in the spontaneously hypertensive rat model (blood pressure and heart rate); type: in vivo; details: oral, 0.1 to 10.0 mg/kg; 1, 5, 8, and 24 hours
Procedure: The antihypertensive effects of R(+)-, S(-)-, and racemic terazosin were tested in several well-controlled experiments in the spontaneously hypertensive rat model. All three materials were dissolved in vehicle (0.2% methylcellulose) and administered orally at doses ranging from 0.1 to 10.0 mg/kg of body weight. As a control, the vehicle was administered orally. The compounds were administered in a volume of 2.0 ml/kg. All doses of the compound and vehicle were tested simultaneously in groups of eight to sixteen rats, randomly grouped.
The arterial and systolic blood pressure and heart rate were measured thirty minutes prior to and at intervals of 1, 5, 8, and 24 hours following administration of the test compounds. […] While not holding to one theory to the exclusion of others, it is believed that the tachycardia associated with administration of the S(-)-enantiomer is due to the greater affinity of the S(-)-enantiomer for binding at the α2 adrenergic receptor and the lack of tachycardia associated with administration of the R(+)-enantiomer with its low affinity for the α2 receptors.

[5] = test system: adult male mice; test: acute toxicity, intravenous administration in adult male mice; type: in vivo; details: mice, R(+) vs S(-)
Procedure: as §1

[6] = molecular target: T2, α2 adrenoceptor (Rattus norvegicus, UniProt P22909); test: α2-mediated norepinephrine release / clonidine antagonism in the stimulated rat vas deferens model; parameters: species or system male Wistar rats
T2 construct: Vas deferens tissue from male Wistar rats; from tissue; host or cells: isolated vas deferens of male Wistar rats
T2 sequence (P22909 1-465): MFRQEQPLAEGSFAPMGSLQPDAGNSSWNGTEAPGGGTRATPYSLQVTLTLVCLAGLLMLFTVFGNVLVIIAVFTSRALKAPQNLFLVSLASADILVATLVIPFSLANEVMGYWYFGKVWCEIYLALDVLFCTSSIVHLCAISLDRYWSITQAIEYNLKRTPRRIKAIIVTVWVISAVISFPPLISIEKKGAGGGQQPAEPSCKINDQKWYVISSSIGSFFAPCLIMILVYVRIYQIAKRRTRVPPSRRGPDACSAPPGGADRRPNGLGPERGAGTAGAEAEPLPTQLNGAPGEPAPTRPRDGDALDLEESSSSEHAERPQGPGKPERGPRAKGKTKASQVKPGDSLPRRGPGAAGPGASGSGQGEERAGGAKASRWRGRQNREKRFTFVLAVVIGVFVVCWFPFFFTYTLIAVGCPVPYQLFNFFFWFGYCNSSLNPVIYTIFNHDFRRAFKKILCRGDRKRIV
Procedure: The effect upon α2 -stimulated norepinephrine release of R(+)-terazosin and the S(-)-enantiomer and racemic compound were evaluated in the stimulated rat vas deferens model. Vas deferens tissue from male Wistar rats was cleaned of extraneous tissue and mounted between platinum stimulating electrodes and suspended in a tissue bath. The tissues were stimulated transmurally until the preparation stabilized, generally after about 60-80 minutes. After the twitch response became constant, a stimulus was applied at a frequency of 0.1 Hz for the duration of the dose-responsestudy.
Clonidine was used as a control for inhibiting the twitch response, with 10 minute contact times at increasing doses until the stimulated response was attenuated to zero. The stimulus was then reduced to once every five minutes and the tissue washed until the twitch response was restored. After this, the 0.1 Hz signal was again applied and clonidine was administered together with test compound. All responses were calculated as percent reduction in the twitch response.
(The pA2 values is the negative logarithm of the equilibrium dissociation constant for the antagonist-receptor complex, calculated from pharmacological functional data, and is a measure of the affinity of the antagonist at the particular receptor.)

| Compound | LD50 [1] [mg/kg] | α2 Receptor pKI [2] | Ki [3] [nM] | increase in heart rate (tachycardia) [4] | LD50 increase over the corresponding S(-)-enantiomer [5] [%] | pA2 (measurability) ([6]; rat vas deferens) | α2-adrenoreceptor affinity and effect on α2-adrenoreceptor mediated norepinephrine release ([6]; tested up to 3.0 μmolar) | effect on norepinephrine release and contractile (twitch) response ([6]; rat vas deferens, 0.1 Hz stimulation, agonist control) |
| --- | --- | --- | --- | --- | --- | --- | --- | --- |
| COc1cc2nc(N3CCN(C(=O)C4CCCO4)CC3)nc(N)c2cc1OC (racemic) [Racemic, 2-[4-[(tetrahydro-2-furanyl)carbonyl]-1-piperazinyl]-6,7-dimethoxy-4-quinazolinamine, reference compound] | 248 | 6.569 ± 0.129 - log M | 0.643 | tachycardia was consistently observed | – | – | – | – |
| COc1cc2nc(N3CCN(C(=O)[C@H]4CCCO4)CC3)nc(N)c2cc1OC [R(+), R(+)-2-[4-[(tetrahydro-2-furanyl)carbonyl]-1-piperazinyl]-6,7-dimethoxy-4-quinazolinamine hydrochloride] | 307 | 5.938 ± 0.178 - log M | 0.964 | consistently did not produce an increase in heart rate (tachycardia) | 50 | No pA2 values could be measured | devoid of α2 -adrenoreceptor affinity and thus failed to affect α2 -adrenoreceptor mediated norepinephrine release | – |
| COc1cc2nc(N3CCN(C(=O)[C@@H]4CCCO4)CC3)nc(N)c2cc1OC [S(-), S(-)-2-[4-[(tetrahydro-2-furanyl)carbonyl]-1-piperazinyl]-6,7-dimethoxy-4-quinazolinamine] | 205 | 7.036 ± 0.199 - log M | 0.643 | tachycardia was consistently observed | – | – | – | – |
| Clc1cccc(Cl)c1N=C1NCCN1 [clonidine, reference compound] | – | – | – | – | – | – | – | inhibits norepinephrine release from the adrenergic nerve endings and thus inhibits the contractile response of tissue |
